Measured values as given in PubChem BioAssay AID1259411 (Chemical Carcinogenesis Research Information System (CCRIS), 2018).
Activity calls are given as the source filed them. How the calls were made is not given here.

Test system: rodent carcinogenicity bioassays, tumor incidence
Experiment: CCRIS carcinogenicity studies
Settings: Route: Oral, Dose: 0, 50, Dose: 0, 50
Procedure, shortened: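 NCI-built, expert-reviewed records of carcinogenicity and related test outcomes (mutagenicity, tumor promotion/inhibition) compiled from published and report sources, historical span 1985-2011, not updated.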

Cc1c(COC(=O)[C@@H]2[C@H](/C=C(\Cl)C(F)(F)F)C2(C)C)cccc1-c1ccccc1
carcinogen call (Species: Mouse, Strain/Sex: Swiss-Webster Derived Tac(SW)fBR/Female (50/sex/group), 200, 500, 600 ppm in feed for 20-21 months, 200, 500, 600 ppm in feed for 20-21 months): inactive; negative; purity 88.35% (98% cis- and 2% trans-isomer)
carcinogen call (Species: Mouse, Strain/Sex: Swiss-Webster Derived Tac(SW)fBR/Male (50/sex/group), 200, 500, 600 ppm in feed for 20-21 months, 200, 500, 600 ppm in feed for 20-21 months, Tumor Site: Type of Lesion: Urinary bladder: Leiomyosarcoma (Dose related increase, 29% at 600 ppm)): active; positive; purity 88.35% (98% cis- and 2% trans-isomer)
carcinogen call (Species: Rat, Strain/Sex: Sprague-Dawley/Female (50/sex/group), 12, 100, 200 ppm in feed for 2 yr, 12, 100, 200 ppm in feed for 2 yr): inactive; negative; purity 88.35% (98% cis- and 2% trans-isomer)
carcinogen call (Species: Rat, Strain/Sex: Sprague-Dawley/Male (60/group), 12, 100, 200 ppm in feed for 2 yr, 12, 100, 200 ppm in feed for 2 yr): inactive; negative; purity 88.35% (98% cis- and 2% trans-isomer)
